Earlier results on 1 compound are cited in US20120252675A1, “HERBICIDE […] A […] E[…] A POLYA[…] THE ALKYL GROUP IS BRANCHED” (priority 2009, published 2012).

For the data set the following is noted: room temperature.

On to `O=C(O)CNCP(=O)(O)O` [glyphosate], for which the solubility in water entry is “about 1.5 % by weight”.
